Values of other authors in patent US9045435B2, “Quinazoline compounds as sodium channel blockers” (Purdue Pharma, L.P., priority 2010, dated 2015).

Assays:
Details in all cases: read-out: TTX IC50; cited from earlier work
[1] = biological target: Nav1.9 (Homo sapiens, UniProt Q9UI33)
[2] = biological target: Nav1.3 (Homo sapiens, UniProt Q9NY46)
[3] = biological target: Nav1.6 (Homo sapiens, UniProt Q9UQD0)
[4] = biological target: Nav1.2 (Homo sapiens, UniProt Q99250)
[5] = biological target: Nav1.1 (Homo sapiens, UniProt P35498)
[6] = biological target: Nav1.8 (Homo sapiens, UniProt Q9Y5Y9)

Sequence of Nav1.6 (Q9UQD0 whole entry, looked up): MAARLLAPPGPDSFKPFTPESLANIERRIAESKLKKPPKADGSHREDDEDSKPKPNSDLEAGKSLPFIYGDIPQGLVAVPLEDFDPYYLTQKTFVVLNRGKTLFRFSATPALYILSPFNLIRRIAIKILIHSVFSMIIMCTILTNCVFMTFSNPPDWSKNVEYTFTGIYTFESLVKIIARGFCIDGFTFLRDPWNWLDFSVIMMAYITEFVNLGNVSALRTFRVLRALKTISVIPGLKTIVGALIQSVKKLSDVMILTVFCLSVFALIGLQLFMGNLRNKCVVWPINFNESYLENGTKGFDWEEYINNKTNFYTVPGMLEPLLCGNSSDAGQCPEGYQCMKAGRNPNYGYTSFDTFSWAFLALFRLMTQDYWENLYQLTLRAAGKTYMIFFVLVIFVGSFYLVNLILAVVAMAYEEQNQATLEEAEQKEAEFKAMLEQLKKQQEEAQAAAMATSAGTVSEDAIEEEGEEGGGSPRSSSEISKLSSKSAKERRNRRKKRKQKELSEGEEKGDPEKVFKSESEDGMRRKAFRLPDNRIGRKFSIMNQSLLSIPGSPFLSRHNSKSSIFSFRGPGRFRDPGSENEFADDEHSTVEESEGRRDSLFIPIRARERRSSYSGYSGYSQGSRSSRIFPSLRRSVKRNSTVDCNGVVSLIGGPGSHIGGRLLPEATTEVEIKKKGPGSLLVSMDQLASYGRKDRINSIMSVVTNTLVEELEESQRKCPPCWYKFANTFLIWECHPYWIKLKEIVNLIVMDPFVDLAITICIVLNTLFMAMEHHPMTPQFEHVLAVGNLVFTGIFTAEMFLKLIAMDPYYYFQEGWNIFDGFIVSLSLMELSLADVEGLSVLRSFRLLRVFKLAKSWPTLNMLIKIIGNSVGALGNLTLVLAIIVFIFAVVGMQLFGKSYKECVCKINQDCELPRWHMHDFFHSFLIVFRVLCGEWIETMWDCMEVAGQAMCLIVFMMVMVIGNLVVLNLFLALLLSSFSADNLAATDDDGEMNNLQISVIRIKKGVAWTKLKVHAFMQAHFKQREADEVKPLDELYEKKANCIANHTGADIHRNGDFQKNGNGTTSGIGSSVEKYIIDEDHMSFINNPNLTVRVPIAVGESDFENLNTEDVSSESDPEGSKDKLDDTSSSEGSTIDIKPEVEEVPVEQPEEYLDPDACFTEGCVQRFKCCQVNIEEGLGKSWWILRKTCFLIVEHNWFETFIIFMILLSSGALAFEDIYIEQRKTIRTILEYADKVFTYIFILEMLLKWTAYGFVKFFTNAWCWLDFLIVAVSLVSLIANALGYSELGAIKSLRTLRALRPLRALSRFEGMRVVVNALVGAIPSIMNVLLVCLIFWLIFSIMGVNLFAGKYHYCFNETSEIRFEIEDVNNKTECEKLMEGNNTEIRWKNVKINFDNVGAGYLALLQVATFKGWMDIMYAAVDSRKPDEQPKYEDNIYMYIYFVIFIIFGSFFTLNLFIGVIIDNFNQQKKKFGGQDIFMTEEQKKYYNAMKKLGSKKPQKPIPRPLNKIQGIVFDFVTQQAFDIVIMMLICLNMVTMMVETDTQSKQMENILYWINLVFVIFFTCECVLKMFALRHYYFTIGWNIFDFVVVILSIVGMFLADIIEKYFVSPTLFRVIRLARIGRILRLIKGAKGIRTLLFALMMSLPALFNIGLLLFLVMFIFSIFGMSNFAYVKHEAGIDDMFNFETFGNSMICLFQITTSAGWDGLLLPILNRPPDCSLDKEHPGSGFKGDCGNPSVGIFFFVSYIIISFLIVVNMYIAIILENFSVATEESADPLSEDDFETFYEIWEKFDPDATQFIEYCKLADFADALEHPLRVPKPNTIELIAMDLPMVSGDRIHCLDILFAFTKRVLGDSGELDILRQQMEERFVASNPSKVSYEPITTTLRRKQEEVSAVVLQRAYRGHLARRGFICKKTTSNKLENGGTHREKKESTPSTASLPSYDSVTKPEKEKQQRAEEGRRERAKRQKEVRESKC
Sequence of Nav1.2 (Q99250 whole entry, looked up): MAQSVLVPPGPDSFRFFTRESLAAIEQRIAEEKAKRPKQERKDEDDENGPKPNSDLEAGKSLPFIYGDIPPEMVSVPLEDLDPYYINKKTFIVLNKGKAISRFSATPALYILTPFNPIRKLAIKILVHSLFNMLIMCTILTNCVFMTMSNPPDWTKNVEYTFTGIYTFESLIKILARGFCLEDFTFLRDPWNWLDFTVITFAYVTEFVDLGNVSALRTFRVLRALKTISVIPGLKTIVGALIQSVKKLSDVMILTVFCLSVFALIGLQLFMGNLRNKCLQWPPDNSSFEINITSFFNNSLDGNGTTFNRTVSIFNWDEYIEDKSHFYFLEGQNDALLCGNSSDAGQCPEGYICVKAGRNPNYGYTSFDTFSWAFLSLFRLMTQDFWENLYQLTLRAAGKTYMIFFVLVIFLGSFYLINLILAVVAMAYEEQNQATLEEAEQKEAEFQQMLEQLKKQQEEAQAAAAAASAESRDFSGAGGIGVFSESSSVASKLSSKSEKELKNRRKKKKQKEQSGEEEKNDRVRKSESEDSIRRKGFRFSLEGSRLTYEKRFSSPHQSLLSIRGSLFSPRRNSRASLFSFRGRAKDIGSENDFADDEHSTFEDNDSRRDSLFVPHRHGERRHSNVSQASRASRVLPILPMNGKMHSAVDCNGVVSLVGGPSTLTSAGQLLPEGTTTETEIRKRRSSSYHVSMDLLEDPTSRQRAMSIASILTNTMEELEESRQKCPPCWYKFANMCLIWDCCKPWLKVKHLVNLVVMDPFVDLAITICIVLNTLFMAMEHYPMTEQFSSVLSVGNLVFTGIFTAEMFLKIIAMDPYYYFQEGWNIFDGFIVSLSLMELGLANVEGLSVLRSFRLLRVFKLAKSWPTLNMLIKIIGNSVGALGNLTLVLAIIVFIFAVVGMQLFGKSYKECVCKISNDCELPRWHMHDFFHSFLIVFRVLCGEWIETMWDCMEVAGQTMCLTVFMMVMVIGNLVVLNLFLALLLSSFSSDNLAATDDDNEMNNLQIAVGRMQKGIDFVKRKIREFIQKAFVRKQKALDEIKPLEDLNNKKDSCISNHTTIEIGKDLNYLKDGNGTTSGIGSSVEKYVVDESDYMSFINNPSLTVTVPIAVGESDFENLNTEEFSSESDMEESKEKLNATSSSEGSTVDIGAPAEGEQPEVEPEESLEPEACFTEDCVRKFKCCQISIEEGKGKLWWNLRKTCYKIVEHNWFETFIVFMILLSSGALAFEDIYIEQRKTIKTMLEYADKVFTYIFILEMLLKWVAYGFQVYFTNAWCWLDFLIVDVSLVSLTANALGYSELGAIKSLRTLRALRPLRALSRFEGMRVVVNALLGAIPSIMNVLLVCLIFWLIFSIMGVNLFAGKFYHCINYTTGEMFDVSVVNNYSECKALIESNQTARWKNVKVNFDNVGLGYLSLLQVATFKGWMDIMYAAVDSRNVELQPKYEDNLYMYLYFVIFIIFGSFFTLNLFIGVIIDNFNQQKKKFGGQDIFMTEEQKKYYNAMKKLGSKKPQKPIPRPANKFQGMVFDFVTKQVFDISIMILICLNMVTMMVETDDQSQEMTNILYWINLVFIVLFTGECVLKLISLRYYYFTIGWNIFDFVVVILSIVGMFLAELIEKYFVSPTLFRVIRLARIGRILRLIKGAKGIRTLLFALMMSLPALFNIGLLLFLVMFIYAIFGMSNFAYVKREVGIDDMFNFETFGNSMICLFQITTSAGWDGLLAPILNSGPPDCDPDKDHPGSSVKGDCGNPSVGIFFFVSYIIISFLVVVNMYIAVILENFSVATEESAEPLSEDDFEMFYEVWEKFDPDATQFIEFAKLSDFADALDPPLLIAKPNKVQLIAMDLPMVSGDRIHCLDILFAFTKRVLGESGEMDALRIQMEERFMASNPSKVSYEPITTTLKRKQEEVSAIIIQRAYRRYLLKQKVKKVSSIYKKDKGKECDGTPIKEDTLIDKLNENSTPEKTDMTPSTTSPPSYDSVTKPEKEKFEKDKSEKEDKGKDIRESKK

## NC1=N[C@H](O)[C@H]2[C@H]3O[C@]4(O)O[C@@H]([C@@H](O)[C@@]2(N1)[C@@H]4O)[C@]3(O)CO [TTX, tetrodotoxin]
[1]
  IC50: 1000 nM
[2]
  IC50: 15 nM
[3]
  IC50: 6 nM
[4]
  IC50: 10 nM
[5]
  IC50: 10 nM
[6]
  IC50: 50000 nM
